The results in this text go back to ChEMBL document CHEMBL1201862, “PubChem BioAssay data set” (2004).

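Following 48 hours of exposure in 96-well plates, responses at five concentrations were used to interpolate endpoints linearly. GI50 marks 50% less growth.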 The source made the active and inactive calls. Cut-off read from the data, not from the text of the source: active = GI50 up to about 1.1 µM and inactive = higher. Some results are limits rather than exact numbers.

Common to all, as to assay: NCI anticancer screen, dose series, 48 h
For assay [1], the system named is SK-MEL-2.
Assay [2] relates to ACHN.
Assay [3] deals with HL-60.
The test system of assay [4] is M14.
Assay [5] deals with RPMI-8226.
Assay [6] has as its system UO-31.
The subject of assay [7] is MDA-MB-435.
Assay [8] deals with SK-MEL-5.
In assay [9] the test system is NCI-H226.
For assay [10], the system named is SF-268.
The test system of assay [11] is Hs-578T.
Assay [12] relates to HCC 2998.
Assay [13] concerns UACC-257.
In assay [14] the test system is HT-29.
In assay [15] the test system is IGROV-1.
For assay [16], the system named is HCT-116.
Assay [17] relates to SK-MEL-28.
Assay [18] relates to EKVX.
Assay [19] has as its system SW-620.
Assay [20] relates to BT-549.

As for `COc1c2c3c4c(c(OC)c(=O)c5c(O)cc(OC)c(c6c(OC)cc(O)c(c1=O)c63)c54)C(C(C)O)C2C(C)=O` (stereo unspecified), the GI50 in assay [1] was 0.738 µM (active); in [2], 0.497 µM (active); in assay [3], 0.334 µM (active); in assay [4], 0.288 µM (active); in assay [5] it was 0.513 µM (active); in [6], 0.325 µM (active). Besides, the GI50 in assay [7] is 0.295 µM (active); in assay [8], 0.138 µM (active); in assay [9], 0.528 µM (active); in assay [10], 0.492 µM (active); in assay [11] it was 0.593 µM (active); in assay [12], 0.481 µM (active). Further, the GI50 is 0.521 µM (active) in [13]; 0.47 µM (active) in assay [14]; 0.445 µM (active) in assay [15]; 0.385 µM (active) in assay [16]; 0.189 µM (active) in assay [17]; 0.482 µM (active) in assay [18]. For the same molecule, the GI50 in assay [19] was 0.395 µM (active).

For `COc1ccc(NC(=O)/C(Cc2cc(=O)oc3cc(O)ccc23)=N\NC(C)(C)C)c(OC)c1`, the GI50 in assay [1], in assay [2], in [3], in assay [4], in assay [5] and in assay [6] was > 100 µM (inactive) throughout. The GI50 in assay [8], in assay [9], in assay [10], in [12], in [13] and in assay [14] was > 100 µM (inactive) in each case. Further, the GI50 in assay [15] is > 100 µM (inactive); in assay [16], > 100 µM (inactive); in assay [17], > 100 µM (inactive); in assay [18] it was 12.6 µM (inactive); in [19], > 100 µM (inactive).

Turning to `CC12CCCCC1(C)C2Sc1ccccc1` (stereo unspecified), the GI50 in assay [1] is 23.4 µM (inactive); in assay [2] it was 46.2 µM (inactive); in [3] it was 17.5 µM (inactive); in [4], 88.5 µM (inactive); in [5], 18.4 µM (inactive); in assay [6] it was 57.9 µM (inactive). For the same molecule, the GI50 in [8] is 31 µM (inactive); in assay [9] it was 54.3 µM (inactive); in assay [10], 42.3 µM (inactive); in [12] it was 31.4 µM (inactive); in assay [13], 39.1 µM (inactive); in assay [14], 37.2 µM (inactive). In addition, the GI50 in [15] is > 81.7 µM (inactive); in [16] it was 38.1 µM (inactive); in assay [17] it was 40.5 µM (inactive); in assay [18] it was > 57.3 µM (inactive); in assay [19], 42.8 µM (inactive).

As for `COc1ccc(C2=Nc3c(nc(SC)[nH]c3=O)NC(c3ccccc3)C2)cc1` (stereo unspecified), the GI50 is 29.1 µM (inactive) in [1]; 21.8 µM (inactive) in [2]; 18.1 µM (inactive) in [3]; 25.4 µM (inactive) in assay [4]; 27.2 µM (inactive) in [5]; 20.8 µM (inactive) in [6]. Besides, the GI50 in [7] was 29.2 µM (inactive); in [8] it was 16.6 µM (inactive); in assay [9], 26.2 µM (inactive); in assay [13], 22.9 µM (inactive); in [14], 21.8 µM (inactive); in assay [15] it was 19.5 µM (inactive). Besides, the GI50 in assay [16] was 30.9 µM (inactive); in [17], > 10 µM (inactive); in [18], 24.4 µM (inactive); in assay [19], 44.9 µM (inactive); in [20], 24.8 µM (inactive).

Regarding `O=C(N=C1N(c2ccccc2)C(=O)C(=O)N1c1ccccc1)c1ccccc1`, the GI50 in assay [1] is 15.5 µM (inactive); in assay [2], 3.78 µM (inactive); in assay [3], 31.2 µM (inactive); in assay [5] it was 13.8 µM (inactive); in assay [6], 14.5 µM (inactive); in [7], 22.9 µM (inactive). Besides, the GI50 was 14.9 µM (inactive) in [8]; 12 µM (inactive) in assay [9]; 15.1 µM (inactive) in [10]; 4.65 µM (inactive) in [11]; 8.53 µM (inactive) in assay [12]; 29.9 µM (inactive) in assay [13]. Moreover, the GI50 in assay [14] is 13.7 µM (inactive); in assay [15] it was 10.5 µM (inactive); in assay [16], 3.99 µM (inactive); in assay [17] it was 17.5 µM (inactive); in assay [18] it was 12.7 µM (inactive); in assay [19], 13.1 µM (inactive).

Turning to `CCC(C(=O)O)c1ccc(OCc2ccccc2)cc1` (stereo unspecified), the GI50 in [1] was > 100 µM (inactive); in assay [2], > 100 µM (inactive); in assay [3] it was > 100 µM (inactive); in assay [4], > 100 µM (inactive); in assay [5] it was > 100 µM (inactive); in [6] it was 21.5 µM (inactive). Moreover, the GI50 in [8], in [9], in [10], in assay [12], in [13] and in assay [14] was > 100 µM (inactive) throughout. Further, the GI50 in assay [15], in assay [16], in [17], in assay [18] and in assay [19] was > 100 µM (inactive) each time.

For `Cc1ccc(NC(=O)C(=O)CC(=O)c2c(C)[n+]([O-])c3ccccc3[n+]2[O-])cc1C`, the GI50 was > 100 µM (inactive) in [1]; > 100 µM (inactive) in [2]; > 100 µM (inactive) in assay [3]; 74.8 µM (inactive) in assay [4]; > 100 µM (inactive) in [5]; > 100 µM (inactive) in [6]. In addition, the GI50 in assay [8], in assay [9], in assay [10], in assay [12], in assay [13] and in assay [14] was > 100 µM (inactive) in each case. The GI50 was > 100 µM (inactive) in [15]; > 100 µM (inactive) in assay [16]; > 100 µM (inactive) in [17]; > 100 µM (inactive) in assay [18]; 49.4 µM (inactive) in [19].

For the molecule `COC(=O)C1(O)CC(=O)CCC1c1ccc(OC)cc1` (stereo unspecified), the GI50 in assay [1], in assay [2], in [3], in [4], in assay [5] and in [6] was > 100 µM (inactive) throughout. Also, the GI50 in [8], in assay [9], in [10], in [12], in assay [13] and in [14] was > 100 µM (inactive) throughout. Besides, the GI50 in assay [15], in assay [16], in assay [17], in assay [18] and in assay [19] was > 100 µM (inactive) throughout.

With `O=C(O)/C(=C/c1c(O)ccc2ccccc12)c1csc(-c2nc(/C(=C\c3c(O)ccc4ccccc34)C(=O)O)cs2)n1`, the GI50 is 2.33 µM (inactive) in assay [1]; 4.83 µM (inactive) in assay [2]; 8.45 µM (inactive) in assay [3]; 11.7 µM (inactive) in [4]; 9.38 µM (inactive) in [5]; 1.53 µM (inactive) in [6]. Besides, the GI50 in [8] is 19.4 µM (inactive); in assay [9] it was 2.49 µM (inactive); in assay [10], 10 µM (inactive); in assay [12], 17.4 µM (inactive); in assay [13], 14.9 µM (inactive); in [14], 22.2 µM (inactive). Besides, the GI50 in [15] was 11.1 µM (inactive); in assay [16], 10.6 µM (inactive); in assay [17] it was 14.4 µM (inactive); in assay [18] it was 41.2 µM (inactive); in assay [19] it was 24 µM (inactive).

In the case of `COc1ccc2[nH]c(=O)cc(C)c2c1[N+](=O)[O-]`, the GI50 in assay [1] was > 100 µM (inactive); in assay [2], > 100 µM (inactive); in assay [3], > 100 µM (inactive); in assay [4], > 100 µM (inactive); in assay [5], > 100 µM (inactive); in assay [6] it was 18.3 µM (inactive). In addition, the GI50 is > 100 µM (inactive) in assay [8]; > 100 µM (inactive) in assay [9]; 82 µM (inactive) in assay [10]; > 100 µM (inactive) in assay [12]; > 100 µM (inactive) in [13]; > 100 µM (inactive) in assay [14]. In addition, the GI50 in [15] was > 100 µM (inactive); in assay [16], > 100 µM (inactive); in assay [17], > 100 µM (inactive); in assay [18] it was 82 µM (inactive); in assay [19] it was > 100 µM (inactive).

Regarding `CC(=O)OC1c2ccccc2CC2(OC(C)=O)c3ccccc3C12` (stereo unspecified), the GI50 in assay [1] is > 100 µM (inactive); in [2] it was > 100 µM (inactive); in [3], > 10 µM (inactive); in [4], > 100 µM (inactive); in [5] it was > 100 µM (inactive); in assay [6], > 100 µM (inactive). For the same molecule, the GI50 in assay [7], in [9], in assay [10], in assay [11], in assay [12] and in assay [13] was > 100 µM (inactive) each time. Besides, the GI50 in [14], in assay [15], in [16], in assay [17], in assay [18] and in assay [19] was > 100 µM (inactive) throughout.
